Values of other authors, collected in PMC11481577, “Allosteric coupling of substrate binding and proton translocation in MmpL3 transporter from Mycobacterium tuberculosis” (mBio, 2024).

Biological target: MmpL3
Conditions: previously measured; read-out: affinity to MmpL3; cited from earlier work

phosphatidylethanolamine [PE]
Kd: 19.5 ± 6.3 µM

trehalose monomycolates [TMM]
Kd: 3.7 ± 1.3 µM
